Laboratory results reported in patent US9334264B2, “NAMPT inhibitors” (AbbVie Inc., priority 2012, dated 2016).
Blank lines part the entries; values can stand above or below the molecule they belong to.

Key:
[1] = target: NAMPT (human, recombinant, C-terminally His-tagged) (Homo sapiens, UniProt P43490); experiment: Time-Resolved Fluorescence Resonance Energy Transfer (TR-FRET) Binding Assay of NAMPT; settings: absence of substrates; 6.8 nM NAMPT, 200 nM probe, equilibrated 3 hours
Procedure, shortened: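 Displacement of 200 nM Oregon Green-labelled nicotinamide-competitive probe from 6.8 nM His-tagged NAMPT, detected with 1 nM Tb-anti-His; HEPES pH 7.5, 2% DMSO, 3 h room temperature. Em520/Em495 ratios normalized and fit four-parameter logistic for IC50.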

[2] = target: NAMPT (Homo sapiens, UniProt P43490); experiment: Time-Resolved Fluorescence Resonance Energy Transfer (TR-FRET) Binding Assay of NAMPT with PRPP; settings: 200 μM PRPP and 2.5 mM ATP; 2 nM NAMPT, 2 nM probe, equilibrated 16 hours
Procedure, shortened: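 Binding was measured by TR-FRET with 2 nM NAMPT, 2 nM probe and 1 nM Tb-anti-His antibody in the presence of 200 μM PRPP and 2.5 mM ATP, with 2% DMSO. Equilibration lasted 16 h before reading, allowing possible enzymatic modification of compounds.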

Sequence of NAMPT (P43490 whole entry): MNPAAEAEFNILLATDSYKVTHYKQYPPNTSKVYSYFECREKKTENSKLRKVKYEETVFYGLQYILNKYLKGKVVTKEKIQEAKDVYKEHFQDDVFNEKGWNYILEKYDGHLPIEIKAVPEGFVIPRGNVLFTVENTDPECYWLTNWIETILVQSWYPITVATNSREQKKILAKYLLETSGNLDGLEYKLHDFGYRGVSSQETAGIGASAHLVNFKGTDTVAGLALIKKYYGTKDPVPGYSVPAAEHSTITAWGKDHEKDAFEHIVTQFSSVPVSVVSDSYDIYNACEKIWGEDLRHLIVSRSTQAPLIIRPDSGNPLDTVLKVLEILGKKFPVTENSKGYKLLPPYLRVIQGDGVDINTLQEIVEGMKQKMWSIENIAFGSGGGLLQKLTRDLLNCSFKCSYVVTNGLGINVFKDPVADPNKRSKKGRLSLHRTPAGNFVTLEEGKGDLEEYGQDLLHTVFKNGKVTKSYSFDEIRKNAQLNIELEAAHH
Sequence of NAMPT (human, recombinant, C-terminally His-tagged) (P43490 whole entry): as above

SMILES: COCCC(=O)N(Cc1cccnc1)c1ncc(C(=O)NCCCn2ccnc2)s1 [Example 122, N-[3-(1H-imidazol-1-yl)propyl]-2-[(3-methoxypropanoyl)(pyridin-3-ylmethyl)amino]-1,3-thiazole-5-carboxamide]
IC50 [1]: > 10000 nM
IC50 [2]: 4.31 nM

SMILES: COCCC(=O)N(CC(=O)N1CCCCC1)c1ncc(C(=O)NCCCn2ccnc2)s1 [Example 196, N-[3-(1H-imidazol-1-yl)propyl]-2-{(3-methoxypropanoyl)[2-oxo-2-(piperidin-1-yl)ethyl]amino}-1,3-thiazole-5-carboxamide]
IC50 [1]: 7010 nM
IC50 [2]: 0.538 nM

SMILES: CC(C)CC(=O)N(CCc1ccc(C#N)cc1)c1ncc(C(=O)NCCCn2ccnc2)s1 [Example 48, 2-{[2-(4-cyanophenyl)ethyl](3-methylbutanoyl)amino}-N-[3-(1H-imidazol-1-yl)propyl]-1,3-thiazole-5-carboxamide]
IC50 [1]: 807 nM
IC50 [2]: 0.701 nM

SMILES: CNC(=O)CCN(C(=O)CCOC)c1ncc(C(=O)NCCCn2ccnc2)s1 [Example 200, N-[3-(1H-imidazol-1-yl)propyl]-2-{(3-methoxypropanoyl)[3-(methylamino)-3-oxopropyl]amino}-1,3-thiazole-5-carboxamide]
IC50 [1]: > 10000 nM
IC50 [2]: 0.747 nM

SMILES: CC(C)CCN(C(=O)CC1CCOCC1)c1ncc(C(=O)NCCCn2ccnc2)s1 [Example 154, N-[3-(1H-imidazol-1-yl)propyl]-2-[(3-methylbutyl)(tetrahydro-2H-pyran-4-ylacetyl)amino]-1,3-thiazole-5-carboxamide]
IC50 [1]: 230 nM
IC50 [2]: 0.518 nM

The remaining lines, values ahead:

IC50 [1]: > 10000 nM
IC50 [2]: 3.53 nM
SMILES: O=C(NCCCn1ccnc1)c1cnc(N(Cc2ccc(F)cc2)C(=O)N2CCC3(C2)OCCO3)s1 [Example 67, N-(4-fluorobenzyl)-N-(5-{[3-(1H-imidazol-1-yl)propyl]carbamoyl}-1,3-thiazol-2-yl)-1,4-dioxa-7-azaspiro[4.4]nonane-7-carboxamide]

IC50 [1]: 2260 nM
IC50 [2]: 1.26 nM
SMILES: CC(C)OCCNC(=O)N(Cc1ccc(F)cc1)c1ncc(C(=O)NCCCn2ccnc2)s1 [Example 87, 2-[(4-fluorobenzyl){[2-(propan-2-yloxy)ethyl]carbamoyl}amino]-N-[3-(1H-imidazol-1-yl)propyl]-1,3-thiazole-5-carboxamide]

IC50 [1]: 1180 nM
IC50 [2]: 2.52 nM
SMILES: CC(C)CC(=O)N(Cc1ccc(C#N)cc1)c1ncc(C(=O)NCCCn2ccnc2)s1 [Example 50, 2-[(4-cyanobenzyl)(3-methylbutanoyl)amino]-N-[3-(1H-imidazol-1-yl)propyl]-1,3-thiazole-5-carboxamide]

IC50 [1]: > 10000 nM
IC50 [2]: 3.18 nM
SMILES: CCOCCN1CCN(CC(=O)N(Cc2ccc(F)cc2)c2ncc(C(=O)NCCCn3ccnc3)s2)CC1 [Example 35, 2-[{[4-(2-ethoxyethyl)piperazin-1-yl]acetyl}(4-fluorobenzyl)amino]-N-[3-(1H-imidazol-1-yl)propyl]-1,3-thiazole-5-carboxamide]

IC50 [1]: 4810 nM
IC50 [2]: 0.531 nM
SMILES: C=CCN1CCN(CC(=O)N(Cc2ccc(F)cc2)c2ncc(C(=O)NCCCn3ccnc3)s2)CC1 [Example 37, 2-[(4-fluorobenzyl){[4-(prop-2-en-1-yl)piperazin-1-yl]acetyl}amino]-N-[3-(1H-imidazol-1-yl)propyl]-1,3-thiazole-5-carboxamide]

IC50 [1]: > 10000 nM
IC50 [2]: 7.04 nM
SMILES: O=C(NCCCn1ccnc1)c1cnc(N(Cc2ccc(F)cc2)C(=O)N2CCCOCC2)s1 [Example 73, N-(4-fluorobenzyl)-N-(5-{[3-(1H-imidazol-1-yl)propyl]carbamoyl}-1,3-thiazol-2-yl)-1,4-oxazepane-4-carboxamide]

IC50 [1]: 1010 nM
IC50 [2]: 0.881 nM
SMILES: N#Cc1ccc(CCN(C(=O)CC2CCOC2)c2ncc(C(=O)NCCCn3ccnc3)s2)cc1 (stereo not drawn) [Example 52, 2-{[2-(4-cyanophenyl)ethyl](tetrahydrofuran-3-ylacetyl)amino}-N-[3-(1H-imidazol-1-yl)propyl]-1,3-thiazole-5-carboxamide]
